Consider one compound from publication PMC10174618, “Monoterpenoid aryl hydrocarbon receptor allosteric antagonists protect against ultraviolet skin damage in female mice” (Nature Communications, 2023).

Test in all cases: biochemical
What all share (parameters): KINOMEscan scanMAX active site-directed competition binding assay, percent of control, 468 kinases
Conditions in all cases: competition binding, percent of control

The target of one assay is SRC (Homo sapiens, UniProt P12931). The essentials: (§1)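 Single-concentration screen (100 μM S-carvone) in a competition binding panel of 468 human kinases (KINOMEscan scanMAX); results given as percent of control, hit cutoff 35%.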
A further assay concerns the target MUSK (Homo sapiens, UniProt O15146). Put shortly:
as §1

A further assay deals with DAPK3 (Homo sapiens, UniProt O43293). The essentials: as §1
For another assay, the target named is T1, JNK2 (Homo sapiens, UniProt P45984).
T1 construct: gene MAPK9
The essentials:
as §1

Another assay has as its target MYLK2 (Homo sapiens, UniProt Q9H1R3). The essentials: as §1
Another assay concerns the target PAK2 (Homo sapiens, UniProt Q13177). The essentials:
as §1

For another assay, the target named is TSSK3 (Homo sapiens, UniProt Q96PN8). The essentials:
as §1

A further assay deals with T2, YSK4 (Homo sapiens, UniProt Q56UN5).
T2 construct: gene MAP3K19
The essentials:
as §1

In assay [1] the target is T3, JAK3(JH1domain-catalytic) (Homo sapiens, UniProt P52333).
T3 construct: JH1domain-catalytic
The essentials:
as §1

In the next assay the target is PAK4 (Homo sapiens, UniProt O96013). Put shortly: as §1
In a further assay the target is KIT(D816V) (Homo sapiens, UniProt P10721, D816V). The essentials: as §1
The target in the next assay is STK16 (Homo sapiens, UniProt O75716). The essentials:
as §1

For the next assay, the target named is MAP3K3 (Homo sapiens, UniProt Q99759). The essentials: as §1
In a further assay the target is CDK2 (Homo sapiens, UniProt P24941). Put shortly: as §1
The next assay has as its target T4, MEK3 (Homo sapiens, UniProt P46734).
T4 construct: gene MAP2K3
Put shortly:
as §1

In the next assay the target is MAP3K15 (Homo sapiens, UniProt Q6ZN16). The essentials:
as §1

For another assay, the target named is ITK (Homo sapiens, UniProt Q08881). The essentials: as §1
Assay [2] has as its target T5, ABL1(Q252H)-phosphorylated (Homo sapiens, UniProt P00519, Q252H).
T5 construct: phosphorylated
The essentials: as §1

A further assay concerns the target LRRK2 (Homo sapiens, UniProt Q5S007). The essentials:
as §1

Another assay addresses BRAF (Homo sapiens, UniProt P15056). Put shortly: as §1
A further assay addresses T6, PKAC-beta (Homo sapiens, UniProt P22694).
T6 construct: gene PRKACB
The essentials:
as §1

A further assay has as its target T7, ADCK4 (Homo sapiens, UniProt Q96D53).
T7 construct: gene COQ8B
The essentials: as §1

Sequence of LRRK2 (Q5S007 whole entry): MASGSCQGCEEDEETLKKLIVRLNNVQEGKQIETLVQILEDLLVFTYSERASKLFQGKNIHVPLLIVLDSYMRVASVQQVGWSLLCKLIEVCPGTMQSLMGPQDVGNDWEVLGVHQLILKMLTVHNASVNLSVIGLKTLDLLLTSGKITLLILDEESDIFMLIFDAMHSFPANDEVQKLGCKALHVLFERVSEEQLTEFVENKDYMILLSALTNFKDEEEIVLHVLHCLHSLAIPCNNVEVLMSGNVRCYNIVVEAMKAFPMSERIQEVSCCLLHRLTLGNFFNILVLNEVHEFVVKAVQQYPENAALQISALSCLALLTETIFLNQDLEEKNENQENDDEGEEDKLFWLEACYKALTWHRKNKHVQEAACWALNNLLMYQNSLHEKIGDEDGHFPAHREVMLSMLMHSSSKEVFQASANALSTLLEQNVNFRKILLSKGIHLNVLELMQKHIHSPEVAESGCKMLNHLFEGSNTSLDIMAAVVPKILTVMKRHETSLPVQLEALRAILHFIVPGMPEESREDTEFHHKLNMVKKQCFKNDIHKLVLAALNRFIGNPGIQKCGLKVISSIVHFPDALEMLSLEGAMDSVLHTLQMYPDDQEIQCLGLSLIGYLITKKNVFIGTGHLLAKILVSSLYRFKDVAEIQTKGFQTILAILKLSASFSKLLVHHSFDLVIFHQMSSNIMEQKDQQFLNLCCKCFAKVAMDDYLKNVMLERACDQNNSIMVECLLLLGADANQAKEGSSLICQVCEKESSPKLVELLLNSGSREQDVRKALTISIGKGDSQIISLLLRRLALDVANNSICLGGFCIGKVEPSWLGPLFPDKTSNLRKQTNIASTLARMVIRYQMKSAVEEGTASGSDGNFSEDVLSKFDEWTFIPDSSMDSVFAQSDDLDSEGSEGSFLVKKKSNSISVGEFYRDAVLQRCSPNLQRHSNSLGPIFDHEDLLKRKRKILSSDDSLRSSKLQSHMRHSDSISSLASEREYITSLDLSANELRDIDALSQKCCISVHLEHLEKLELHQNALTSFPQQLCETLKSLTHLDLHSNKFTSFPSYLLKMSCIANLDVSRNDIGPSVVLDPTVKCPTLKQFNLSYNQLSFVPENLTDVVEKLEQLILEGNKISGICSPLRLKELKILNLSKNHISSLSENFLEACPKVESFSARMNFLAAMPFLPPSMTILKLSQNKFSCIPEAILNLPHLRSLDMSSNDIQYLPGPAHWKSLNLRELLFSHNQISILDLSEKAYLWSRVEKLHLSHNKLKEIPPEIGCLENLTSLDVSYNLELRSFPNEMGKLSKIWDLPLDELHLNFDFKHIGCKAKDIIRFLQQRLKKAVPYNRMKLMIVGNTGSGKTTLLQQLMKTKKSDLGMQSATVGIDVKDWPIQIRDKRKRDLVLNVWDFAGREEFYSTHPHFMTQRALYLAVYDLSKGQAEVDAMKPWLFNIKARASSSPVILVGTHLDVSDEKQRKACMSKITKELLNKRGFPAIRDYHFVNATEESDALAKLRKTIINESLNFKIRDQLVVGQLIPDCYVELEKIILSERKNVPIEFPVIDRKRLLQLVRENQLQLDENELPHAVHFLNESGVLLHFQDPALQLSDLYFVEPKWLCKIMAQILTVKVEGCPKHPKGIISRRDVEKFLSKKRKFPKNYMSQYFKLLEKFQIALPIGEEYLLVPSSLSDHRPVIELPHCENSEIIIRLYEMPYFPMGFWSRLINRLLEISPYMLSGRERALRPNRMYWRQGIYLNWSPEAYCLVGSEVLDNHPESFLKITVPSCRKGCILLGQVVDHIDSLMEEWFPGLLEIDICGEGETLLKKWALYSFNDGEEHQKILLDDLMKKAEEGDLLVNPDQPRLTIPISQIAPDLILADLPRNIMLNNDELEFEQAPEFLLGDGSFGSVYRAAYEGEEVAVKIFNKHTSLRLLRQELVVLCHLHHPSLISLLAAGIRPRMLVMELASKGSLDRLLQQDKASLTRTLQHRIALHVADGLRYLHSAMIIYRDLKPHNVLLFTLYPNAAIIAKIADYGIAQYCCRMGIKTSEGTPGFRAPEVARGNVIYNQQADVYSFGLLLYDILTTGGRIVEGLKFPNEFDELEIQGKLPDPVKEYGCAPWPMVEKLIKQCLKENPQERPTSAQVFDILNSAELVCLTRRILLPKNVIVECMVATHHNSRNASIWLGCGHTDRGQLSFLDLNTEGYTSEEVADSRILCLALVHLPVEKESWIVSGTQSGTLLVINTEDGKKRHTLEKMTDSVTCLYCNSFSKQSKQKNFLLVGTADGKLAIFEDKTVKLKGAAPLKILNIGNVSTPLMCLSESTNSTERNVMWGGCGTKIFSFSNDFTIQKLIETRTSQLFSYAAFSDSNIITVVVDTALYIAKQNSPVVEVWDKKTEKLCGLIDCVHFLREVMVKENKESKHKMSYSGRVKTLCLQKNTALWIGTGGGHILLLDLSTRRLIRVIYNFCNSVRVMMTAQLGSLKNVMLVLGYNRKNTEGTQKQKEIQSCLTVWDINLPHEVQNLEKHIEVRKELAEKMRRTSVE
T4 sequence (P46734 whole entry): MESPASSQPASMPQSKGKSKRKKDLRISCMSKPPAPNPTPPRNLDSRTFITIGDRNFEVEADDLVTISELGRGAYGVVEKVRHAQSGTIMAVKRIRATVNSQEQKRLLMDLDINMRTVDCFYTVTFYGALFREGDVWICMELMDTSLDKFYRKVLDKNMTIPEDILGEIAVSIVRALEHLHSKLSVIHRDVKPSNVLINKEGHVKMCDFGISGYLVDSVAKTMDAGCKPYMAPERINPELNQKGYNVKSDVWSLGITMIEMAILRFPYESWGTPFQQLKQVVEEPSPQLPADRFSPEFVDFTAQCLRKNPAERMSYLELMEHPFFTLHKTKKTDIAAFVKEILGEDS
Sequence of ITK (Q08881 whole entry): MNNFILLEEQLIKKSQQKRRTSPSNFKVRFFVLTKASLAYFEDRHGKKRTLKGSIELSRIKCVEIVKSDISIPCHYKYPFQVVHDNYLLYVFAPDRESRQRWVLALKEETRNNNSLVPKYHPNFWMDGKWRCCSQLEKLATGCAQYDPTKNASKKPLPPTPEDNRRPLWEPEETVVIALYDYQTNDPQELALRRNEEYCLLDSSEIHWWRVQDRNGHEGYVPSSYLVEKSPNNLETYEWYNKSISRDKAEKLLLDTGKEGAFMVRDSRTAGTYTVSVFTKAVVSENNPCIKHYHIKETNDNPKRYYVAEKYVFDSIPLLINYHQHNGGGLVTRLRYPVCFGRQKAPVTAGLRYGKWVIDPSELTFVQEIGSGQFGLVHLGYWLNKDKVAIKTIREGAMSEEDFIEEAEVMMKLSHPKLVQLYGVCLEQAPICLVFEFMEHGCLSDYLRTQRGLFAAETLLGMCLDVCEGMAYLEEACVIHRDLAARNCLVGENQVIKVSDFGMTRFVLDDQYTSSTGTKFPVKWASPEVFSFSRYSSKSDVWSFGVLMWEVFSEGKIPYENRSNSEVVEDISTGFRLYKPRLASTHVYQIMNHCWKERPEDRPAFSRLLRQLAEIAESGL
Sequence of MAP3K15 (Q6ZN16 whole entry): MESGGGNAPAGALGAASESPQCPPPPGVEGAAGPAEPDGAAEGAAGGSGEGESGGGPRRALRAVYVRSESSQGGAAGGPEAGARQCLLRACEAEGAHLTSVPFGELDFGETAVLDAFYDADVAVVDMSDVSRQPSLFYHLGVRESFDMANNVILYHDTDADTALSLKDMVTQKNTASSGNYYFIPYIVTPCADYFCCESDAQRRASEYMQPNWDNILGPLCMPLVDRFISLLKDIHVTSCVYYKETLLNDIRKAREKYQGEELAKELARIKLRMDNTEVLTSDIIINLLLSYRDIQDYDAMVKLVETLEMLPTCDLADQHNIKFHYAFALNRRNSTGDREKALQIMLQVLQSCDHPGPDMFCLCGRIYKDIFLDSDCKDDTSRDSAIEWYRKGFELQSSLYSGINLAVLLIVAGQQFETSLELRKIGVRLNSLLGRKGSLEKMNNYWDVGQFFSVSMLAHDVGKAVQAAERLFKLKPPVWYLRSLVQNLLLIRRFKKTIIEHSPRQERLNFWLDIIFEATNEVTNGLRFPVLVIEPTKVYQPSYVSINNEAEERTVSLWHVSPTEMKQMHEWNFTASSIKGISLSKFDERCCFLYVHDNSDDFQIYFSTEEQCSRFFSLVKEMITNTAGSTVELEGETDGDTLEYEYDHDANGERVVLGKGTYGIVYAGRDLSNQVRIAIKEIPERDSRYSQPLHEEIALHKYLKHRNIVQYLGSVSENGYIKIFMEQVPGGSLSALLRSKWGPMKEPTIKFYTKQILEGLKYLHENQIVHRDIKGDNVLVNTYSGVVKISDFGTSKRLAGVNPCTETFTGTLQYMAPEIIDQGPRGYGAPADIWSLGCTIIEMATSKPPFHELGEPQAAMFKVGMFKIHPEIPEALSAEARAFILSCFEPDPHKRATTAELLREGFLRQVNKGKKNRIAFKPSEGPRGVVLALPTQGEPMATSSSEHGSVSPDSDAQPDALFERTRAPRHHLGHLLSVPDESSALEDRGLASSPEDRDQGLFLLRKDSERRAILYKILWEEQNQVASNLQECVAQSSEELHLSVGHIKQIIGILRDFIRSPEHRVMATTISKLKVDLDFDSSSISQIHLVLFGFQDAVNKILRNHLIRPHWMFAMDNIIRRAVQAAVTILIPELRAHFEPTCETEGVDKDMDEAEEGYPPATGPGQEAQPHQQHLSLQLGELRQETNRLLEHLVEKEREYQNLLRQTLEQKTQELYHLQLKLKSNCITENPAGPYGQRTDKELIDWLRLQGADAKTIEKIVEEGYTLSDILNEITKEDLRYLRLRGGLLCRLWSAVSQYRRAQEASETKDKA
Sequence of TSSK3 (Q96PN8 whole entry): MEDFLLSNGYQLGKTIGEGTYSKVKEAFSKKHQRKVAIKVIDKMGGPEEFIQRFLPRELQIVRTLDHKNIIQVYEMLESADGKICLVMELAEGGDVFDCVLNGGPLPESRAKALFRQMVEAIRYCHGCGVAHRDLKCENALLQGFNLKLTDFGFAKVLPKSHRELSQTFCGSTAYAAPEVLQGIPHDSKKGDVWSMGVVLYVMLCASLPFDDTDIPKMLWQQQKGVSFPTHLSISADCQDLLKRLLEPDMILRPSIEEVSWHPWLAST

Take `C=C(C)[C@H]1CC=C(C)C(=O)C1` [S-carvone]: the remaining binding at 100 µM at SRC was found to be 77%; on MUSK, 100%; on DAPK3 it was 84%; on JNK2, 95%; on MYLK2, 100%; at PAK2, 98%. Moreover, the remaining binding at 100 µM at TSSK3 was determined as 100%; at YSK4, 61%; in assay [1], 90%; at PAK4, 74%; at KIT(D816V), 78%; at STK16, 90%. For the same compound, the remaining binding at 100 µM was 54% at MAP3K3; 85% at CDK2; 84% on MEK3; 93% on MAP3K15; 87% on ITK; 55% in [2]. Moreover, the remaining binding at 100 µM at LRRK2 was 100%; on BRAF, 83%; on PKAC-beta, 84%; on ADCK4, 92%.
